This note sets out measurements from ChEMBL document CHEMBL1201862, “PubChem BioAssay data set” (2004).

One assay concerns the target T1, Streptokinase A (Streptococcus pyogenes serotype M1, UniProt P10520).
T1 sequence (P10520 whole entry): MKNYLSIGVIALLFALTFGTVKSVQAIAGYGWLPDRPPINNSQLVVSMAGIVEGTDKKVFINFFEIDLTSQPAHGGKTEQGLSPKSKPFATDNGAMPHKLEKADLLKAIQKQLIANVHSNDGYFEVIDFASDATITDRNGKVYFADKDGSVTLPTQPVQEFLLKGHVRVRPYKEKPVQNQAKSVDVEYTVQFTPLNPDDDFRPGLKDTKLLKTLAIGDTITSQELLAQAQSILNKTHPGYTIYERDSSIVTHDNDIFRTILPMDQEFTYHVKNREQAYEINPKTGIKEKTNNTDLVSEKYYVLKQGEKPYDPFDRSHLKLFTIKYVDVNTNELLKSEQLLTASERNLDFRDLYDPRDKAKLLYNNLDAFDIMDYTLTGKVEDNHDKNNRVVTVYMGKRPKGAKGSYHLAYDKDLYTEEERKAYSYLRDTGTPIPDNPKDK
Briefly: S. pyogenes streptokinase expression inhibitors, potency, dose response, plasminogen activation absorbance, OD405 (AID 1914).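 Note: secreted streptokinase activity via plasminogen activation per viability signal from cell pellet.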 The assay is classed as functional, Streptococcus pyogenes M1 GAS.

Assay [1] can be described thus: Luminescence Cell-Based Dose Confirmation HTS to Identify Inhibitors of Platelet Dense Granule Release. [Related pubchem assays: 1663 (Primary HTS), 1678 (Summary of Project)]. The assay is classed as functional.
Assay [2] concerns Streptococcus sp. 'group A'. Briefly: growth inhibition of control SK(-) GAS strain, dose response, counter-screen for streptokinase expression inhibitor project, luminescence, kanamycin, BacTiterGlo, confirmation (AID 1900). Format: functional, organism-based. Background: A counterscreen serves to expose hits that act by an unwanted route or on another target.
In assay [3] the target is Luciferin 4-monooxygenase (Photinus pyralis, UniProt P08659). Briefly: firefly luciferase enzyme inhibitors, dose response, biochemical, luminescence (AID 1891).
Chain of Luciferin 4-monooxygenase (P08659 whole entry): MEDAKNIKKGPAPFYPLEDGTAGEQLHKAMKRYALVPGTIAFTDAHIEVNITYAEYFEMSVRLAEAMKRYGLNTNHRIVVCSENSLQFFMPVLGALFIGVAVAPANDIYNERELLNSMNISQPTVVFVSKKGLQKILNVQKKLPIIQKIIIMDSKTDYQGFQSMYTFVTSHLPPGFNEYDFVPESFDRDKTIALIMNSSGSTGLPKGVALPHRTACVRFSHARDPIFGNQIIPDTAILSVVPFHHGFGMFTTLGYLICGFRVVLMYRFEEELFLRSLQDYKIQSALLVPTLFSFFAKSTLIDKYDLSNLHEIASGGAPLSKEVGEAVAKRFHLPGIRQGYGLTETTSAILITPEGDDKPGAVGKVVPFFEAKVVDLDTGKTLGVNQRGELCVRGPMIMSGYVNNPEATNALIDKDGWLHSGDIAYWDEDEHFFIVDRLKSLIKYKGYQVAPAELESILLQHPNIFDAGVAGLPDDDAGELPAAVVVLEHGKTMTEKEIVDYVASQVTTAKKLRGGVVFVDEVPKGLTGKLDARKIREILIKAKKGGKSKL
The test system of another assay is Streptococcus. The experiment in a line: Group A Streptococcus viability loss, dose response, counter-screen for streptokinase expression inhibitor project, luminescence, BacTiterGlo (AID 1915).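 Note: potency for reduction of bacterial viability or growth.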 The assay is classed as functional, organism-based.
The next assay concerns INS1. The experiment in a line: beta cell apoptosis inhibitors, cytokine rescue, dose response, luminescence, retest (AID 449756).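 Note: cell death triggered by IL-1 beta plus TNF-alpha plus IFN-gamma mixture; protective hits raise ATP signal compared with cytokine alone wells.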 Format: functional, cell-based. As to conditions: Rattus norvegicus.
Assay [4] in a line: NIH-3T3 fibroblast cytotoxicity, dose response, cytotoxicity control, cell-based, fluorescence, Alamar Blue, secondary assay (AID 2327).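 Note: NIH-3T3 mouse fibroblasts cultured with fluconazole at 8 µg/mL.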 Format: functional.
Assay [5] can be described thus: Luminescence Cell-Based Dose Retest to Confirm Inhibitors of Cancer Stem Cells. [Related pubchem assays (depositor defined):AID2717, AID2721]. To be noted: Homo sapiens. Format: functional.
Assay [6] can be described thus: C. albicans growth with fluconazole, confirmation, fluorescence, retest (AID 2467). Format: functional, cell-based.
Assay [7] addresses T2, Rac GTPase-activating protein 1 (Homo sapiens, UniProt Q9H0H5).
T2 sequence (Q9H0H5 whole entry): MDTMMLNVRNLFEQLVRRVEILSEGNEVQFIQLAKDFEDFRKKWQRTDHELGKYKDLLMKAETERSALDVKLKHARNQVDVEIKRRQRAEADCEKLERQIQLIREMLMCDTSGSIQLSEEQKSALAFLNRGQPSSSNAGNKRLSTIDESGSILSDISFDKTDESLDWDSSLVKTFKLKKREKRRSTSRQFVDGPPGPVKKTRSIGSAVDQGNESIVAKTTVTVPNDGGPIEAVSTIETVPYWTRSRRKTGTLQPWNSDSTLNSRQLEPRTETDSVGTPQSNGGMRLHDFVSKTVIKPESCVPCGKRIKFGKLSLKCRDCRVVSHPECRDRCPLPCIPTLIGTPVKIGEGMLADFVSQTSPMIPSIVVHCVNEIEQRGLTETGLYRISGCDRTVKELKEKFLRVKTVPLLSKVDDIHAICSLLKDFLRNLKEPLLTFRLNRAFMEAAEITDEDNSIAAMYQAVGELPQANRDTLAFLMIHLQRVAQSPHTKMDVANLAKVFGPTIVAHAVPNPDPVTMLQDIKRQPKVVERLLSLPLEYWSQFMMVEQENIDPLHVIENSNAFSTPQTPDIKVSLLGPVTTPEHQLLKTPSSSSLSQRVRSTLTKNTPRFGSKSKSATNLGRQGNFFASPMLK
The experiment in a line: MgcRacGAP GTPase-activating activity inhibitors, confirmation, biochemical, ADP Hunter fluorescence, primary and confirmatory (AID 624330). Format: functional.

For another assay, the target named is T3, Cytochrome P450 1A2 (Homo sapiens, UniProt P05177).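 Note: PubChem cytochrome P450 panel assay, CYP1A2 panel member.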
T3 sequence (P05177 whole entry): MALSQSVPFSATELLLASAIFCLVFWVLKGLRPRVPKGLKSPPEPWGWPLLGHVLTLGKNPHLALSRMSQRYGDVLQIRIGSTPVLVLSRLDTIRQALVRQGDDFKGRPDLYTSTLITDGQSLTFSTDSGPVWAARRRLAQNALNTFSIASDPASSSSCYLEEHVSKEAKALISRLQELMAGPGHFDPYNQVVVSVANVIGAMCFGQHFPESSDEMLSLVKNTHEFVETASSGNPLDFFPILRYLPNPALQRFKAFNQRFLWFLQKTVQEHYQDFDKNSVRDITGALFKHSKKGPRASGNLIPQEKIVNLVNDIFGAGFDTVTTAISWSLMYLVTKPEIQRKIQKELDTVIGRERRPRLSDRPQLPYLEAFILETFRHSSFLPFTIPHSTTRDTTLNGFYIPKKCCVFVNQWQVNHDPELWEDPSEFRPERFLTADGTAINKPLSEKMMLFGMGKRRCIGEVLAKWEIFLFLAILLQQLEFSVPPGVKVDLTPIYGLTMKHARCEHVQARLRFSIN

Another assay has as its target Cytochrome P450 2D6 (Homo sapiens, UniProt P10635).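 Note: CYP2D6 member of a cytochrome P450 panel assay.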
The nature of assay [8]: cytotoxicity toward NIH3T3 fibroblasts, dose response, counter-screen, cell-based, ATP luminescence, mouse fibroblasts (AID 2010).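 Note: cells exposed to compound for about 90 hours before reading.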 Format: functional.
Assay [9] is described as follows: inhibitors of intracellular T. cruzi replication, confirmation, NIH3T3 host cells, beta-gal luminescence (AID 2044).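 Note: intracellular parasites grown in NIH/3T3 mouse fibroblasts as host cells; luminescent beta-galactosidase reporter signal from transgenic T. cruzi replicating inside host cells; inhibitors lower the luminescence signal.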 Format: functional, cell-based.
The target of assay [10] is T4, Corticotropin-releasing factor receptor 2/Corticotropin-releasing factor-binding protein (Homo sapiens, UniProt P24387+Q13324).
T4 sequence (Q13324 whole entry): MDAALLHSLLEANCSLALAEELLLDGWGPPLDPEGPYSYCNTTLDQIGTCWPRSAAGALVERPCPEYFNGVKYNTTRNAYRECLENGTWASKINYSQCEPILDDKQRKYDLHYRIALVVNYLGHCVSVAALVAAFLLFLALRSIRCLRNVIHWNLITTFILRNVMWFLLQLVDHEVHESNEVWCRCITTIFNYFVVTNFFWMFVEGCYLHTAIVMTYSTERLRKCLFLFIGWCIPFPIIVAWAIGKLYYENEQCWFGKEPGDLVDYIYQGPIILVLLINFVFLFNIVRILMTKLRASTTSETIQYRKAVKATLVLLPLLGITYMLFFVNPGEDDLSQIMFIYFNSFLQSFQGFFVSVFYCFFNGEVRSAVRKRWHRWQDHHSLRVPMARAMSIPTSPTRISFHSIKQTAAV
T4 sequence (P24387 whole entry): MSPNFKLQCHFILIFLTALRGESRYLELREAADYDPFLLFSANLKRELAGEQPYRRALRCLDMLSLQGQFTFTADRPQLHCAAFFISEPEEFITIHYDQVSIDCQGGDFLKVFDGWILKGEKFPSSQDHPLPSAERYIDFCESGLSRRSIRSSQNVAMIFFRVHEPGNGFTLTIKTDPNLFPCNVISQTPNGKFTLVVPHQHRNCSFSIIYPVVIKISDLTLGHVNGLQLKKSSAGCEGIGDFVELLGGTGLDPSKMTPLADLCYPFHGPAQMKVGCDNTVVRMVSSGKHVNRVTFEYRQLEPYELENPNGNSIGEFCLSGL
Briefly: activators of CRF receptor 2 with binding protein – uHTS hits, confirmation (AID 602473). Format: functional. As to conditions: read-out: EC50_Mean.

Assay [11] concerns the target T4, Corticotropin-releasing factor receptor 2/Corticotropin-releasing factor-binding protein. The experiment in a line: Dose Response confirmation of uHTS hits for small molecule antagonists of the CRF-binding protein and CRF-R2 receptor complex. To be noted: read-out: IC50_Mean. Format: functional.

Calls of active or inactive are those of the source. Cut-off read from the data, not from the text of the source, for most assays here: actives have a measured EC50 and inactives only a lower limit. A value given as a limit tells only on which side of the number the result lay.

Chain of Cytochrome P450 2D6 (P10635 whole entry): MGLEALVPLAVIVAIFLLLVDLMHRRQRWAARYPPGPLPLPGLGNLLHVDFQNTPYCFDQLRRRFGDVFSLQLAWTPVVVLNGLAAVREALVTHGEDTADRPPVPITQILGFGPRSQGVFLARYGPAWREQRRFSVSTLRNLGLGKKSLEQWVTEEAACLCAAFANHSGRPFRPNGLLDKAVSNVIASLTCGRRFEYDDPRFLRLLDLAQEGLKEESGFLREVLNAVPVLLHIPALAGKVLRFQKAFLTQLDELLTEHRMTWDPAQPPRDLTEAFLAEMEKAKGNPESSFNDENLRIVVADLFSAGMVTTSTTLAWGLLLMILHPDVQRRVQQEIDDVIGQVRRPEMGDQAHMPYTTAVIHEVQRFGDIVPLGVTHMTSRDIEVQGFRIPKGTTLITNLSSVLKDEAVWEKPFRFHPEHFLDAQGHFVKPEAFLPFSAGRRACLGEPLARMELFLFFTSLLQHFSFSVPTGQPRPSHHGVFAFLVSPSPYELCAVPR

`O=[N+]([O-])c1ccc(N=Nc2ccc(O)cc2O)cc1`: the EC50 is > 50 µM (not active) on Streptokinase A; 3 µM (active) in [1]; 2.44 µM (active) in [2]; 1.05 µM (active) in [3]; 24.6 µM (active) in the assay on Streptococcus.

In general, AC50 refers to the concentration at which the activity in the assay is half-maximal. For the compound `CC(C)C[C@H]1CN=C(Nc2ccccc2)N1CCC(C)c1ccccc1` (stereo partly drawn), in the assay with INS1, the AC50 was 9.62 µM (active).

In the case of `Clc1nc2ncnc-2c[nH]1`, the EC50 in assay [1] and in assay [3] was > 112 µM (not active) each time.

As to `O=C(NNc1ccc(Cl)cc1)c1cccs1`, the values for the EC50 in [4] and in assay [6] were 2.56 µM (inconclusive) and > 38 µM (not active), respectively. Besides, the AC50 in assay [5] was 1.14 µM (active).

Turning to `CC[C@H](C)Cc1cn([C@@H](CCCCNC(=O)OC(C)(C)C)C(=O)NCCCCCCCCCCC(=O)N2CCN(C(=O)OC(C)(C)C)CC2)nn1`, in the assay with INS1, the AC50 is 7.02 µM (active).

For the compound `COc1cccc(-c2nc3ccc(O)cc3c(=O)o2)c1`, the figures for the EC50 in assay [1] and in assay [3] were 9.19 µM (active) and 5.39 µM (active), respectively.

For the compound `C/N=c1\scc(C)n1/N=C/c1cc(Br)c(O)c(Br)c1`, the IC50 in assay [7] is 77 µM (active).

With `CCOC(=O)C1CCN(C(=O)Cn2nc(C)n3c(cc4cc(F)ccc43)c2=O)CC1`, the figures for the EC50 in assay [1] and in assay [3] were 15.8 µM (active) and > 112 µM (not active), respectively.

On to `Oc1ccc(Cc2ccc(Cl)cc2)c(O)c1`, for which the IC50 in assay [7] is 69.5 µM (active).

`CSc1ccccc1C(=O)Nc1ncc(C)s1`: the EC50 in assay [1] was 65.8 µM (active); in [3], > 112 µM (not active).

On to `Cc1ccc2nc(-c3cccc(-c4cccc(Cl)c4)c3)c(NCc3ccccc3)n2c1`, for which the AC50 in assay [5] is 4.01 µM (active); with INS1, 7.9 µM (active).

Take `O=Nc1c(O)n(Cc2ccc(Cl)c(Cl)c2)c2ccccc12`: the EC50 in [4] is 76.8 µM (active); in assay [6] it was 3.73 µM (active). The AC50 in [5] was 5.78 µM (active); on Cytochrome P450 1A2, 20 µM (inconclusive); at Cytochrome P450 2D6 it was 28.2 µM (inconclusive).

Consider `O=C(Nc1cccc(O)c1)C(=O)Nc1ccccn1`, for which the EC50 was 1.82 µM (active) in assay [1] and 7.77 µM (active) in [3].

Turning to `CC1(C)CC(N2CCN(Cc3ccccc3)CC2)=CC(=[N+]2CCCCC2)C1`, the EC50 is > 160 µM (inactive) in [4], > 60 µM (not active) in assay [8], 0.289 µM (active) in [9] and 2.72 µM (active) in assay [6]. The AC50 in the assay on INS1 was 2.16 µM (active).

Consider `Cc1cccc2c(N)c3c(nc12)N(C)CC3`, for which the IC50 in assay [7] was 115 µM (active).

On to `COc1cccc(CNCc2ccco2)c1O`, for which, in [7], the IC50 was 117 µM (active).

In the case of `C#CCN(C(=O)c1cc(COc2cccc(C(F)(F)F)c2)on1)C1CCCCC1`, the AC50 with INS1 was > 120 µM (inactive).

Take `COC(=O)COc1ccc(S(=O)(=O)NCc2cccnc2)cc1C`: the EC50 in [1] was 34.3 µM (active); in assay [3], > 112 µM (not active).

As for `O=C(CC1(O)C(=O)Nc2ccccc21)c1ccccc1` (stereo not drawn), the EC50 in [1] and in assay [3] was > 112 µM (not active) in each case.

As for `CC(c1ccccc1)N1CCn2c(nc3cc(NS(C)(=O)=O)ccc32)C1` (stereo not drawn), the values for the EC50 in [4] and in assay [6] were > 160 µM (inconclusive) and > 38 µM (not active), respectively.

Turning to `COc1ccc(Br)cc1/C=N/n1c(C)nnc1C`, the EC50 in assay [1] and in assay [3] was > 112 µM (not active) throughout.

As for `Cc1ccc(CNC(=O)C2CCCN(c3nn4c(=O)cc(C)nc4s3)C2)cc1` (stereo not drawn), the EC50 in [1] and in assay [3] was > 112 µM (not active) each time.

In the case of `O=[N+]([O-])c1ccc(-n2cnc3ccccc32)c([N+](=O)[O-])c1`, the values for the EC50 in [8] and in assay [9] were > 60 µM (inconclusive) and 0.485 µM (active), respectively. Further, the AC50 in the assay with INS1 is 14.3 µM (active).

Turning to `CCn1c(=O)c(C(=O)Nc2ccccn2)c(O)c2ccccc21`, the AC50 in the assay with INS1 is 30.2 µM (active).

In the case of `CCOc1ccccc1/C=c1\sc2ncnn2c1=O`, in assay [7], the IC50 was 48.7 µM (active).

As to `O=C(CN1CCN(c2ccccc2F)CC1)Nc1nnc(C(F)(F)F)s1`, the EC50 in assay [4] was > 150 µM (inactive); in assay [6], 0.366 µM (active).

For the compound `CC(NCC(=O)Nc1ccccc1C(=O)NC1CC1)c1cccc(Cl)c1` (stereo not drawn), the EC50 in assay [10] is > 53 µM (inactive). The IC50 in assay [11] is > 47.1 µM (inactive).

For the compound `COc1cc(/C=N/NC(=O)CCC(=O)Nc2ccc(F)cc2)ccc1O`, the IC50 in assay [7] was 35.8 µM (active).

Consider `COc1ccccc1NC(=O)Cc1c(F)cccc1Cl`, for which the EC50 in assay [1] is 70.8 µM (active); in [3], > 112 µM (not active).

For `COc1ccc(-c2cc(C)no2)cc1S(=O)(=O)N(C)c1cccc(C)c1`, the EC50 in [4] was > 160 µM (inactive); in [6], > 38 µM (not active).

Turning to `O=C(c1ccco1)N1CCN(C(=O)c2ccc(COc3ccc(F)cc3)o2)CC1`, the EC50 in assay [1] and in [3] was > 112 µM (not active) in each case.
